Patent publication US11173150B2, “Method for diagnosing, preventing, and treating neurological diseases” (United States Government As Represented By The Department …, priority 2010, dated 2021)
Values after ≈ are worked out from the molar mass of the structure shown. Where two headings read alike, the source gives them in different places. Bridge positions count the residues as written; N and C are the ends. Square brackets hold non-standard residues; d marks the D form. Peptide text beside a SMILES is read from it. * marks the point of attachment. Octanoyl(6-Me) = CCC(C)CCCCC(=O)*; Dab = NCC[CH](N)C(=O)O

How the values were obtained:
[1] = cited from earlier work
[2] = test system: Desulfovibrio; assay: Antimicrobial susceptibility testing, CLSI serial two-fold plate dilution; assay type: cell-based
[3] = biological target: tetanus toxin (Clostridium tetani, UniProt P04958); conditions: cited from earlier work
[4] = test system: clostridia; conditions: cited from earlier work
[5] = Desulfovibrio, Desulfovibrio strain 8951, read-out: MIC
[6] = Desulfovibrio, Desulfovibrio strain 11232, read-out: MIC
[7] = Desulfovibrio, Desulfovibrio strain 11437, read-out: MIC
[8] = Desulfovibrio, Desulfovibrio strain 11789, read-out: MIC
[9] = Desulfovibrio, Desulfovibrio strain 11830, read-out: MIC
[10] = Desulfovibrio, Desulfovibrio strain 12379, read-out: MIC
[11] = Desulfovibrio, Desulfovibrio strain 13966, read-out: MIC
[12] = Desulfovibrio, Desulfovibrio type strain 29098^T, read-out: MIC
[13] = Desulfovibrio type strain 7757^T
[14] = Desulfovibrio type strain 29098^T

tetanus toxin, sequence (P04958 whole entry, looked up): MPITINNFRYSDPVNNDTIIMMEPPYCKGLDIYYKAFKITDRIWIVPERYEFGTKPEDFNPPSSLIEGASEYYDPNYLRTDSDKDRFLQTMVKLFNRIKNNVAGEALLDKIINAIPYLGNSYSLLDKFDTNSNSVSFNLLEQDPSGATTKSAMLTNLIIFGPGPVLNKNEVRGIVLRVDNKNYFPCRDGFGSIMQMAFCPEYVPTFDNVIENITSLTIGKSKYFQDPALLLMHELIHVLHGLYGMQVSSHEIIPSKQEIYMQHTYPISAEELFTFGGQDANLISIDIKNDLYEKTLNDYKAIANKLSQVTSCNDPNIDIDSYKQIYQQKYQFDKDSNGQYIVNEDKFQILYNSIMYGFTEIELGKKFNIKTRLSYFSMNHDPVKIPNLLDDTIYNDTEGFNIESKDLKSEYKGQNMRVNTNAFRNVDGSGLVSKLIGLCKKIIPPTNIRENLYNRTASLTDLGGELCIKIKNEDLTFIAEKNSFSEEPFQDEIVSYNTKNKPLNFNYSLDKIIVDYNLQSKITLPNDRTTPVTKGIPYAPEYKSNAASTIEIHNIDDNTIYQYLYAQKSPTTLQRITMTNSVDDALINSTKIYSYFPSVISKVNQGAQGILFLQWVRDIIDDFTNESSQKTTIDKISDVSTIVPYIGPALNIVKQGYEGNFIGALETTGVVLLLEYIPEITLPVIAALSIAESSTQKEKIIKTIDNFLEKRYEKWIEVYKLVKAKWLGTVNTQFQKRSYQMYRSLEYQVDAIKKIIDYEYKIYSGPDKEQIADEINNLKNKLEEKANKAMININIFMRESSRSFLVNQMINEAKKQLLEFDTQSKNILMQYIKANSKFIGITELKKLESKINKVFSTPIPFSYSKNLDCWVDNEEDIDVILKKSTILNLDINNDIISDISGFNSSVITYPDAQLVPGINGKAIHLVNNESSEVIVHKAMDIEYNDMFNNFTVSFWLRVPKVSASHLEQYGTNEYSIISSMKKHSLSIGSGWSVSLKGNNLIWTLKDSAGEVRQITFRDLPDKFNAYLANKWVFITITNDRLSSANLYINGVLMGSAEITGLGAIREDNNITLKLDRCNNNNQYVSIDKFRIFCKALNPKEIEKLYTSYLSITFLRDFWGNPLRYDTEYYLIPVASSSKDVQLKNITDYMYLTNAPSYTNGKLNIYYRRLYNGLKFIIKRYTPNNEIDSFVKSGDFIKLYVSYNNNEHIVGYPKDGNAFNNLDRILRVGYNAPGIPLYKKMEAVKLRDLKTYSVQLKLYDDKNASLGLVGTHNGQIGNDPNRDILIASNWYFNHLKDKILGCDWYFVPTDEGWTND

In the case of `C[C@H]1[C@H](NC(=O)/C(=N\OC(C)(C)C(=O)O)c2csc(N)n2)C(=O)N1S(=O)(=O)O` [Aztreonam], the “Absorption when given by the oral route” value ([1]; oral) is listed as “virtually unabsorbed”, the MIC ([2]; Desulfovibrio, Desulfovibrio strain 4019) is listed as 512 µg/mL (≈ 1180 µM) and the MIC ([2]; Desulfovibrio, Desulfovibrio strain 8381) is listed as 128 µg/mL (≈ 294 µM). For the same molecule, the MIC [2, 5] was 64 µg/mL (≈ 147 µM), the MIC ([2]; Desulfovibrio, Desulfovibrio strain 9070) was 512 µg/mL (≈ 1180 µM) and the MIC [2, 6] was 64 µg/mL (≈ 147 µM). For the same molecule, the MIC [2, 7] was 64 µg/mL (≈ 147 µM), the MIC [2, 8] was 32 µg/mL (≈ 73.5 µM) and the MIC [2, 9] was 64 µg/mL (≈ 147 µM). For the same molecule, the MIC [2, 10] was 16 µg/mL (≈ 36.7 µM), the MIC [2, 11] was 24 µg/mL (≈ 55.1 µM) and the MIC [2, 12] was 32 µg/mL (≈ 73.5 µM).
In the case of `C[C@H](CS)C(=O)N1CCC[C@H]1C(=O)O` [Captopril], the “Effect on tetanus toxin in vitro” value [3] is listed as “inactivates”.
For `NC[C@H]1O[C@H](O[C@H]2[C@H](O)[C@@H](O[C@H]3O[C@H](CO)[C@@H](O)[C@H](N)[C@H]3O)[C@H](N)C[C@@H]2N)[C@H](O)[C@@H](O)[C@@H]1O` [Kanamycin], the “Absorption when given by the oral route” value ([1]; in vivo, po) is listed as “virtually unabsorbed”, the MIC ([2]; Desulfovibrio, Desulfovibrio strain 4019, read-out: MIC) is listed as 512 µg/mL (≈ 1060 µM) and the MIC ([2]; Desulfovibrio, Desulfovibrio strain 8236, read-out: MIC) is listed as 512 µg/mL (≈ 1060 µM). It also gave an MIC ([2]; Desulfovibrio, Desulfovibrio strain 8381, read-out: MIC) of 256 µg/mL (≈ 528 µM), an MIC ([2]; Desulfovibrio, Desulfovibrio strain 8907, read-out: MIC) of 256 µg/mL (≈ 528 µM) and an MIC ([2]; Desulfovibrio, Desulfovibrio strain 8933, read-out: MIC) of 512 µg/mL (≈ 1060 µM). For the same molecule, the MIC [2, 5] was 512 µg/mL (≈ 1060 µM), the MIC ([2]; Desulfovibrio, Desulfovibrio strain 9070, read-out: MIC) was 512 µg/mL (≈ 1060 µM) and the MIC ([2]; Desulfovibrio, Desulfovibrio strain 9120, read-out: MIC) was 256 µg/mL (≈ 528 µM). For the same molecule, the MIC ([2]; Desulfovibrio, Desulfovibrio strain 9706, read-out: MIC) was 256 µg/mL (≈ 528 µM), the MIC ([2]; Desulfovibrio, Desulfovibrio strain 9976, read-out: MIC) was 128 µg/mL (≈ 264 µM) and the MIC ([2]; Desulfovibrio, Desulfovibrio strain 10831, read-out: MIC) was 256 µg/mL (≈ 528 µM). It also gave an MIC ([2]; Desulfovibrio, Desulfovibrio strain 11081, read-out: MIC) of 512 µg/mL (≈ 1060 µM), an MIC ([2]; Desulfovibrio, Desulfovibrio strain 11094, read-out: MIC) of 512 µg/mL (≈ 1060 µM) and an MIC [2, 6] of 256 µg/mL (≈ 528 µM). It also gave an MIC ([2]; Desulfovibrio, Desulfovibrio strain 11346, read-out: MIC) of 512 µg/mL (≈ 1060 µM), an MIC ([2]; Desulfovibrio, Desulfovibrio strain 11378, read-out: MIC) of 512 µg/mL (≈ 1060 µM) and an MIC [2, 7] of 128 µg/mL (≈ 264 µM). It also gave an MIC ([2]; Desulfovibrio, Desulfovibrio strain 11568, read-out: MIC) of 512 µg/mL (≈ 1060 µM), an MIC ([2]; Desulfovibrio, Desulfovibrio strain 11623, read-out: MIC) of 256 µg/mL (≈ 528 µM) and an MIC ([2]; Desulfovibrio, Desulfovibrio strain 11717, read-out: MIC) of 512 µg/mL (≈ 1060 µM). It also gave an MIC [2, 8] of 256 µg/mL (≈ 528 µM), an MIC [2, 9] of 128 µg/mL (≈ 264 µM) and an MIC ([2]; Desulfovibrio, Desulfovibrio strain 11949, read-out: MIC) of 128 µg/mL (≈ 264 µM). It also gave an MIC [2, 10] of 512 µg/mL (≈ 1060 µM), an MIC [2, 11] of 512 µg/mL (≈ 1060 µM) and an MIC ([2]; Desulfovibrio, Desulfovibrio type strain 7757^T, read-out: MIC) of 512 µg/mL (≈ 1060 µM). The MIC [2, 12] was 128 µg/mL (≈ 264 µM).
For `CCC(C)CCCCC(=O)NC(CCN)C(=O)NC(C(=O)NC(CCN)C(=O)NC1CCNC(=O)C(C(C)O)NC(=O)C(CCN)NC(=O)C(CCN)NC(=O)C(CC(C)C)NC(=O)C(Cc2ccccc2)NC(=O)C(CCN)NC1=O)C(C)O` (stereo not shown) [Polymyxin B] ({Octanoyl(6-Me)}-[Dab]T[Dab][Dab][Dab]FL[Dab][Dab]T; lactam 4-C; configuration not given here), the “Absorption when given by the oral route” value ([1]; oral) is given as “virtually unabsorbed”, the “Penetration of the intestinal mucosa” value ([1]; oral) is given as “do not penetrate the intestinal mucosa” and the MIC ([2]; Desulfovibrio strain 4019) is given as 256 µg/mL (≈ 213 µM). For the same molecule, the MIC ([2]; Desulfovibrio strain 8236) was 256 µg/mL (≈ 213 µM), the MIC ([2]; Desulfovibrio strain 8381) was >512 µg/mL and the MIC ([2]; Desulfovibrio strain 8907) was >512 µg/mL. The MIC ([2]; Desulfovibrio strain 8933) was >512 µg/mL, the MIC ([2]; Desulfovibrio strain 8951) was >512 µg/mL and the MIC ([2]; Desulfovibrio strain 9070) was >512 µg/mL. For the same molecule, the MIC ([2]; Desulfovibrio strain 9120) was >512 µg/mL, the MIC ([2]; Desulfovibrio strain 9706) was >512 µg/mL and the MIC ([2]; Desulfovibrio strain 9976) was >512 µg/mL. It also gave an MIC ([2]; Desulfovibrio strain 10831) of 128 µg/mL (≈ 106 µM), an MIC ([2]; Desulfovibrio strain 11081) of 256 µg/mL (≈ 213 µM) and an MIC ([2]; Desulfovibrio strain 11094) of 256 µg/mL (≈ 213 µM). For the same molecule, the MIC ([2]; Desulfovibrio strain 11232) was >512 µg/mL, the MIC ([2]; Desulfovibrio strain 11346) was >512 µg/mL and the MIC ([2]; Desulfovibrio strain 11378) was 256 µg/mL (≈ 213 µM). For the same molecule, the MIC ([2]; Desulfovibrio strain 11437) was >512 µg/mL, the MIC ([2]; Desulfovibrio strain 11568) was >512 µg/mL and the MIC ([2]; Desulfovibrio strain 11623) was >512 µg/mL. It also gave an MIC ([2]; Desulfovibrio strain 11717) of 256 µg/mL (≈ 213 µM), an MIC ([2]; Desulfovibrio strain 11789) of 16 µg/mL (≈ 13.3 µM) and an MIC ([2]; Desulfovibrio strain 11830) of 128 µg/mL (≈ 106 µM). The MIC ([2]; Desulfovibrio strain 11949) was >512 µg/mL, the MIC ([2]; Desulfovibrio strain 12379) was 8 µg/mL (≈ 6.65 µM) and the MIC ([2]; Desulfovibrio strain 13966) was >512 µg/mL. For the same molecule, the MIC [2, 13] was 256 µg/mL (≈ 213 µM) and the MIC [2, 14] was 256 µg/mL (≈ 213 µM).
For Colistin, the “Absorption when given by the oral route” value ([1]; oral) is given as “virtually unabsorbed”, the “Penetration of the intestinal mucosa” value ([1]; oral) is given as “do not penetrate the intestinal mucosa” and the MIC ([2]; Desulfovibrio strain 4019) is given as >512 µg/mL. For the same molecule, the MIC ([2]; Desulfovibrio strain 8236) was >512 µg/mL, the MIC ([2]; Desulfovibrio strain 8381) was >512 µg/mL and the MIC ([2]; Desulfovibrio strain 8907) was >512 µg/mL. For the same molecule, the MIC ([2]; Desulfovibrio strain 8933) was >512 µg/mL, the MIC ([2]; Desulfovibrio strain 8951) was >512 µg/mL and the MIC ([2]; Desulfovibrio strain 9070) was >512 µg/mL. The MIC ([2]; Desulfovibrio strain 9120) was >512 µg/mL, the MIC ([2]; Desulfovibrio strain 9706) was >512 µg/mL and the MIC ([2]; Desulfovibrio strain 9976) was >512 µg/mL. For the same molecule, the MIC ([2]; Desulfovibrio strain 10831) was >512 µg/mL, the MIC ([2]; Desulfovibrio strain 11081) was >512 µg/mL and the MIC ([2]; Desulfovibrio strain 11094) was >512 µg/mL. For the same molecule, the MIC ([2]; Desulfovibrio strain 11232) was >512 µg/mL, the MIC ([2]; Desulfovibrio strain 11346) was >512 µg/mL and the MIC ([2]; Desulfovibrio strain 11378) was >512 µg/mL. For the same molecule, the MIC ([2]; Desulfovibrio strain 11437) was >512 µg/mL, the MIC ([2]; Desulfovibrio strain 11568) was >512 µg/mL and the MIC ([2]; Desulfovibrio strain 11623) was >512 µg/mL. The MIC ([2]; Desulfovibrio strain 11717) was >512 µg/mL, the MIC ([2]; Desulfovibrio strain 11789) was >512 µg/mL and the MIC ([2]; Desulfovibrio strain 11830) was >512 µg/mL. For the same molecule, the MIC ([2]; Desulfovibrio strain 11949) was >512 µg/mL, the MIC ([2]; Desulfovibrio strain 12379) was >512 µg/mL and the MIC ([2]; Desulfovibrio strain 13966) was >512 µg/mL. For the same molecule, the MIC [2, 13] was >512 µg/mL and the MIC [2, 14] was >512 µg/mL.
With Trimethoprim/sulfamethoxazole [TMX/Sul] the MIC ([2]; Desulfovibrio strain 8381) was 256 µg/mL, the MIC ([2]; Desulfovibrio strain 8907) was 512 µg/mL and the MIC ([2]; Desulfovibrio strain 8933) was 256 µg/mL. For the same molecule, the MIC ([2]; Desulfovibrio strain 8951) was 256 µg/mL, the MIC ([2]; Desulfovibrio strain 9070) was >512 µg/mL and the MIC ([2]; Desulfovibrio strain 9120) was 256 µg/mL. For the same molecule, the MIC ([2]; Desulfovibrio strain 9706) was 256 µg/mL, the MIC ([2]; Desulfovibrio strain 9976) was 256 µg/mL and the MIC ([2]; Desulfovibrio strain 11232) was 128 µg/mL. The MIC ([2]; Desulfovibrio strain 11346) was 512 µg/mL, the MIC ([2]; Desulfovibrio strain 11437) was 4 µg/mL and the MIC ([2]; Desulfovibrio strain 11568) was >512 µg/mL. It also gave an MIC ([2]; Desulfovibrio strain 11623) of 512 µg/mL, an MIC ([2]; Desulfovibrio strain 11949) of 512 µg/mL and an MIC ([2]; Desulfovibrio strain 13966) of 512 µg/mL. The MIC [2, 13] was >512 µg/mL and the MIC [2, 14] was 256 µg/mL.
In the case of ramoplanin, the Activity against clostridia [4] is given as “very good activity” and the “Systemic absorption in humans” value ([1]; humans) is given as “not detectably absorbed”.
